Reference: PubChem BioAssay AID280 (DTP/NCI, 2004)
Inconclusive results and toxic doses are left out.

Tested on: nude mice, LOX melanoma ip, survival T/C
Test: NCI In Vivo Anticancer Drug Screen. Data for tumor model Human Amelanotic Melanoma (LOX) (intraperitoneal) in NU/NU BALB/C (nude) mice
Details: endpoint: median survival time, higher = longer survival
Method: The antitumor activity of compounds was measured in mice bearing transplantable tumors. Survival or tumor size were measured and the results are expressed as the measurement made in the treated group (T) divided by the measurement made in the vehicle treated control group (C). The tumor model used in this assay is Human Amelanotic Melanoma (LOX) (intraperitoneal) in NU/NU BALB/C (nude) mice

[1] = dose: 50.0 mg/kg/injection, schedule: Q04DX003 (ip), vehicle: Klucel (hydroxypropylcellulose) (HPC)
[2] = dose: 200.0 mg/kg/injection, schedule: Q04DX003 (ip), vehicle: Klucel (hydroxypropylcellulose) (HPC)
[3] = dose: 25.0 mg/kg/injection, schedule: Q04DX003 (ip), vehicle: Klucel (hydroxypropylcellulose) (HPC)
[4] = dose: 100.0 mg/kg/injection, schedule: Q04DX003 (ip), vehicle: Klucel (hydroxypropylcellulose) (HPC)
[5] = dose: 300.0 mg/kg/injection, schedule: Q04DX003 (ip), vehicle: Klucel (hydroxypropylcellulose) (HPC)

COc1ccc(/C=C/C(=O)c2ccccc(=O)c2O)c(OC)c1OC
T/C (dose: 6.85 mg/kg/injection, schedule: Q04DX003 (ip), vehicle: Klucel (hydroxypropylcellulose) (HPC)): 100 % of control | T/C (dose: 13.7 mg/kg/injection, schedule: Q04DX003 (ip), vehicle: Klucel (hydroxypropylcellulose) (HPC)): 100 % of control | T/C (dose: 27.5 mg/kg/injection, schedule: Q04DX003 (ip), vehicle: Klucel (hydroxypropylcellulose) (HPC)): 110 % of control | T/C (dose: 55.0 mg/kg/injection, schedule: Q04DX003 (ip), vehicle: Klucel (hydroxypropylcellulose) (HPC)): 104 % of control | T/C (dose: 110.0 mg/kg/injection, schedule: Q04DX003 (ip), vehicle: Klucel (hydroxypropylcellulose) (HPC)): 110 % of control

O=C([O][Bi]([c]1ccccc1)[c]1ccccc1)c1ccccc1
T/C (dose: 12.5 mg/kg/injection, schedule: Q04DX003 (ip), vehicle: Klucel (hydroxypropylcellulose) (HPC)): 98 % of control | T/C [1]: 211 % of control | T/C [2]: 103 % of control

Nc1ccn([C@@H]2C=C(CO)[C@@H](O)[C@H]2O)c(=O)n1
T/C (dose: 1.0 mg/kg/injection, schedule: Q01DX009 (ip), vehicle: saline): 219 % of control

CCOC(=O)NC1CCc2cc(OC)c(OC)c(OC)c2-c2ccc(OC)c(=O)cc21 (stereo unspecified)
T/C (dose: 2.5 mg/kg/injection, schedule: Q04DX003 (ip), vehicle: Klucel (hydroxypropylcellulose) (HPC)): 154 % of control | T/C (dose: 5.0 mg/kg/injection, schedule: Q04DX003 (ip), vehicle: Klucel (hydroxypropylcellulose) (HPC)): 154 % of control | T/C (dose: 10.0 mg/kg/injection, schedule: Q04DX003 (ip), vehicle: Klucel (hydroxypropylcellulose) (HPC)): 178 % of control | T/C (dose: 20.0 mg/kg/injection, schedule: Q04DX003 (ip), vehicle: Klucel (hydroxypropylcellulose) (HPC)): 214 % of control

CC(C)(C)NC(C1=CC(C)(C)c2ccccc2C1=O)c1ccccc1 (stereo unspecified)
T/C [3]: 107 % of control | T/C [1]: 113 % of control | T/C [4]: 110 % of control | T/C [2]: 118 % of control

CCCCCCCC(=O)O[C@H]1[C@H]2[C@@H](CC1(C)C)C(=O)[C@]13O[C@H]1C(=O)[C@]1(CO1)[C@]23C
T/C (dose: 2.5 mg/kg/injection, schedule: Q04DX003 (ip), vehicle: saline with Tween-80): 115 % of control | T/C (dose: 5.0 mg/kg/injection, schedule: Q04DX003 (ip), vehicle: saline with Tween-80): 92 % of control | T/C (dose: 10.0 mg/kg/injection, schedule: Q04DX003 (ip), vehicle: saline with Tween-80): 90 % of control | T/C (dose: 20.0 mg/kg/injection, schedule: Q04DX003 (ip), vehicle: saline with Tween-80): 103 % of control | T/C (dose: 40.0 mg/kg/injection, schedule: Q04DX003 (ip), vehicle: saline with Tween-80): 92 % of control

O=C1C2=C(C(=O)c3ncccc31)C1C=CC2CC1 (stereo unspecified)
T/C (dose: 25.0 mg/kg/injection, schedule: Q04DX003 (ip), vehicle: DMSO): 99 % of control | T/C (dose: 50.0 mg/kg/injection, schedule: Q04DX003 (ip), vehicle: DMSO): 103 % of control | T/C (dose: 100.0 mg/kg/injection, schedule: Q04DX003 (ip), vehicle: DMSO): 99 % of control | T/C (dose: 200.0 mg/kg/injection, schedule: Q04DX003 (ip), vehicle: DMSO): 89 % of control

Cc1ccc(NN=O)nc1
T/C (dose: 2.5 mg/kg/injection, schedule: Q04DX003 (ip), vehicle: water): 105 % of control | T/C (dose: 5.0 mg/kg/injection, schedule: Q04DX003 (ip), vehicle: water): 114 % of control | T/C (dose: 10.0 mg/kg/injection, schedule: Q04DX003 (ip), vehicle: water): 115 % of control

ClC1(Cl)Cc2ccccc21
T/C (dose: 50.0 mg/kg/injection, schedule: Q04DX003 (ip), vehicle: saline with Tween-80): 109 % of control | T/C (dose: 100.0 mg/kg/injection, schedule: Q04DX003 (ip), vehicle: saline with Tween-80): 120 % of control | T/C (dose: 400.0 mg/kg/injection, schedule: Q04DX003 (ip), vehicle: saline with Tween-80): 120 % of control

CN(C)c1ccc2c(Nc3ccc(NS(C)(=O)=O)cc3)c3ccc(N(C)C)cc3nc2c1
T/C [3]: 101 % of control | T/C [1]: 98 % of control | T/C [4]: 113 % of control | T/C [2]: 163 % of control | T/C (dose: 400.0 mg/kg/injection, schedule: Q04DX003 (ip), vehicle: Klucel (hydroxypropylcellulose) (HPC)): 109 % of control

Oc1cccc2ccccc12
T/C (dose: 18.75 mg/kg/injection, schedule: Q04DX003 (ip), vehicle: water): 98 % of control | T/C (dose: 37.5 mg/kg/injection, schedule: Q04DX003 (ip), vehicle: water): 102 % of control | T/C (dose: 75.0 mg/kg/injection, schedule: Q04DX003 (ip), vehicle: water): 106 % of control | T/C (dose: 150.0 mg/kg/injection, schedule: Q04DX003 (ip), vehicle: water): 102 % of control

COC1=C(OC)C(=O)C(N(C)C)=C(CO)C1=O
T/C (dose: 25.0 mg/kg/injection, schedule: Q04DX003 (ip), vehicle: saline): 116 % of control | T/C (dose: 50.0 mg/kg/injection, schedule: Q04DX003 (ip), vehicle: saline): 103 % of control | T/C (dose: 100.0 mg/kg/injection, schedule: Q04DX003 (ip), vehicle: saline): 104 % of control | T/C (dose: 200.0 mg/kg/injection, schedule: Q04DX003 (ip), vehicle: saline): 117 % of control

Cn1c(=S)sc2nc3ccccc3n2c1=S
T/C (dose: 30.0 mg/kg/injection, schedule: Q04DX003 (ip), vehicle: saline with Tween-80): 122 % of control | T/C (dose: 60.0 mg/kg/injection, schedule: Q04DX003 (ip), vehicle: saline with Tween-80): 100 % of control | T/C (dose: 120.0 mg/kg/injection, schedule: Q04DX003 (ip), vehicle: saline with Tween-80): 104 % of control | T/C (dose: 240.0 mg/kg/injection, schedule: Q04DX003 (ip), vehicle: saline with Tween-80): 108 % of control | T/C (dose: 480.0 mg/kg/injection, schedule: Q04DX003 (ip), vehicle: saline with Tween-80): 94 % of control

CN=C(NC#N)NCCSCc1nc[nH]c1C
T/C (dose: 75.0 mg/kg/injection, schedule: Q04DX003 (ip), vehicle: Klucel (hydroxypropylcellulose) (HPC)): 98 % of control | T/C (dose: 150.0 mg/kg/injection, schedule: Q04DX003 (ip), vehicle: Klucel (hydroxypropylcellulose) (HPC)): 98 % of control | T/C [5]: 101 % of control

COc1ccc2oc(-c3ccc(Cl)cc3)c(N3CCN(C)CC3)c2c1
T/C (dose: 75.0 mg/kg/injection, schedule: Q04DX003 (ip), vehicle: saline): 91 % of control | T/C (dose: 150.0 mg/kg/injection, schedule: Q04DX003 (ip), vehicle: saline): 118 % of control | T/C (dose: 300.0 mg/kg/injection, schedule: Q04DX003 (ip), vehicle: saline): 90 % of control

O=C(CCCN1CCC(C(O)c2ccc(F)cc2)CC1)c1ccc(F)cc1 (stereo unspecified)
T/C (dose: 6.25 mg/kg/injection, schedule: Q01DX009 (ip), vehicle: saline with Tween-80): 95 % of control | T/C (dose: 12.5 mg/kg/injection, schedule: Q01DX009 (ip), vehicle: saline with Tween-80): 107 % of control | T/C (dose: 12.5 mg/kg/injection, schedule: Q01DX009 (oral), vehicle: saline with Tween-80): 109 % of control | T/C (dose: 25.0 mg/kg/injection, schedule: Q01DX009 (ip), vehicle: saline with Tween-80): 101 % of control | T/C (dose: 25.0 mg/kg/injection, schedule: Q01DX009 (oral), vehicle: saline with Tween-80): 99 % of control | T/C (dose: 50.0 mg/kg/injection, schedule: Q01DX009 (ip), vehicle: saline with Tween-80): 115 % of control | T/C (dose: 50.0 mg/kg/injection, schedule: Q01DX009 (oral), vehicle: saline with Tween-80): 107 % of control | T/C (dose: 100.0 mg/kg/injection, schedule: Q01DX009 (oral), vehicle: saline with Tween-80): 107 % of control

N=C(N)c1ccc(N=Nc2c(O)ccc3cc(O)ccc23)cc1
T/C (dose: 18.75 mg/kg/injection, schedule: Q04DX003 (ip), vehicle: Klucel (hydroxypropylcellulose) (HPC)): 92 % of control | T/C (dose: 37.5 mg/kg/injection, schedule: Q04DX003 (ip), vehicle: Klucel (hydroxypropylcellulose) (HPC)): 102 % of control | T/C [5]: 95 % of control

C/C(=N\NC(=S)N1CCC1)c1ccccn1
T/C (dose: 3.13 mg/kg/injection, schedule: Q04DX003 (ip), vehicle: other): 99 % of control | T/C (dose: 6.25 mg/kg/injection, schedule: Q04DX003 (ip), vehicle: other): 96 % of control | T/C (dose: 12.5 mg/kg/injection, schedule: Q04DX003 (ip), vehicle: other): 95 % of control | T/C (dose: 25.0 mg/kg/injection, schedule: Q04DX003 (ip), vehicle: other): 100 % of control
